Experiments:
[1] = target: T1, HNE (human neutrophil elastase) (Homo sapiens, UniProt P08246); assay: HNE inhibition assay (fluorogenic substrate); format: biochemical; conditions: for IC50: Table 1, mean ± SD of three independent experiments, NA = no inhibitory activity at the highest concentration tested (50 μM)
T1 construct: purchased Calbiochem, La Jolla, CA
T1 sequence (P08246 30-267): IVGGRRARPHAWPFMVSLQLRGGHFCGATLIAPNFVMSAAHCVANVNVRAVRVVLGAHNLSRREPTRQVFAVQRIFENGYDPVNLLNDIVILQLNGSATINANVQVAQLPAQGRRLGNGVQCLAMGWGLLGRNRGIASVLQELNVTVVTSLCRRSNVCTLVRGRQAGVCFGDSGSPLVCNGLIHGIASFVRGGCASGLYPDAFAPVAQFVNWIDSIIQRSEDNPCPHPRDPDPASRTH
Experimental: HNE inhibition assay. Compounds were dissolved in 100% DMSO at 5 mM stock concentrations. The final concentration of DMSO in the reactions was 1%, and this level of DMSO had no effect on enzyme activity. The HNE inhibition assay was performed in black flat-bottom 96-well microtiter plates. Briefly, a buffer solution containing 200 mM Tris–HCl, pH 7.5, 0.01% bovine serum albumin, 0.05% Tween-20, and 20 mU/ml of HNE (Calbiochem, La Jolla, CA) was added to wells containing different concentrations of each compound. The reaction was initiated by addition of 25 μM elastase substrate (N-methylsuccinyl-Ala-Ala-Pro-Val-7-amino-4-methylcoumarin, Calbiochem) in a final reaction volume of 100 μL/well. Kinetic measurements were obtained every 30 s for 10 min at 25 °C using a Fluoroskan Ascent FL fluorescence microplate reader (Thermo Electron, Waltham, MA) with excitation and emission wavelengths at 355 and 460 nm, respectively. For all compounds tested, the concentration of inhibitor that caused 50% inhibition of the enzymatic reaction (IC50) was calculated by plotting % inhibition versus logarithm of inhibitor concentration (at least six points). The data are presented as the mean values of at least three independent experiments with relative standard deviations of <15%.

HNE [2] = target: T2, HNE (Homo sapiens, UniProt P08246); assay: Compound hydrolysis in the presence of HNE; format: biochemical; conditions: for half-life: human, phosphate buffer supplemented with HNE (400 mU/ml), pH 7.3, 400 mU/ml HNE, read-out: t1/2 (h) In the presence HNE (converted)
T2 construct: purchased Calbiochem, La Jolla, CA
T2 sequence (P08246 30-267): T1 sequence (P08246 30-267)
Experimental: (§1) Spontaneous hydrolysis of selected derivatives was evaluated at 25 °C in 0.05 M phosphate buffer, pH 7.3. Kinetics of hydrolysis were monitored by measuring changes in absorbance spectra over time using a SpectraMax Plus microplate spectrophotometer (Molecular Devices, Sunnyvale, CA). Absorbance (At) at the characteristic absorption maxima of each compound was measured at the indicated times until no further absorbance decreases occurred (A∞)[30]. Using these measurements, we created semilogarithmic plots of log(At – A∞) versus time, and k′ values were determined from the slopes of these plots. Half-conversion times were calculated using t1/2=0.693/k′, as described previously.
In the presence of 400 mU/ml HNE, the hydrolysis was 2.2–4.8-fold higher than for spontaneous hydrolysis (i.e. without HNE) (Table 3).
Figure 5. Analysis of compound 2i spontaneous hydrolysis. Compound 2i (80 μM) was incubated in 0.05 M phosphate buffer ([…], 25 °C) supplemented with […] HNE, as indicated. Spontaneous hydrolysis was monitored by measuring changes in absorbance at 275 nm (absorption maximum of compound 2i) over time. The data are presented as the mean ± SD of triplicate samples from one experiment, which is representative of two independent experiments.

[3] = Spontaneous hydrolysis (chemical stability) in aqueous buffer; format: physicochemical; conditions: 25 °C, 0.05 M phosphate buffer, pH 7.3; read-out: t1/2 (h) Spontaneous hydrolysis (converted)
Experimental: as §1

HNE [4] = target: T2, HNE; assay: Reversibility of the HNE-inhibitor complex over time (kinetic curves); format: biochemical; conditions: compound at 5 μM
Experimental: (§2) However, inhibition by compound 2s was reversed after 10 min. […] To better understand the mechanism of action of this isoxazolone HNE inhibitor, we performed additional kinetic experiments.
Figure 6. Evaluation of HNE inhibition by selected isoxazolone derivatives. HNE was incubated with the indicated compounds at 5 μM concentrations, and kinetic curves monitoring substrate cleavage catalysed by HNE are shown. Representative curves are from three independent experiments.

HNE [5] = target: T2, HNE; assay: Lineweaver-Burk analysis of HNE inhibition; format: biochemical; conditions: double-reciprocal Lineweaver-Burk plot
Experimental: as §2
Figure 7. Kinetics of HNE inhibition by compound 2o. Representative double-reciprocal Lineweaver–Burk plot from three independent experiments.

**Q.** For `Cc1c(C)n(C(=O)C2CC2)oc1=O` [Compound 2a, 2-(Cyclopropanecarbonyl)-3,4-dimethylisoxazol-5(2H)-one], which IC50 [1] is on record?
**A.** 120 ± 23 nM

**Q.** For `Cc1cccc(C(=O)n2oc(=O)c(C)c2C)c1` [Compound 2b, 3,4-Dimethyl-2-(3-methylbenzoyl)isoxazol-5(2H)-one], which IC50 [1] is on record?
**A.** 10900 ± 1200 nM

**Q.** Which IC50 [1] does the source give for `CCc1c(C)n(C(=O)C2CC2)oc1=O` [Compound 2c, 2-(Cyclopropanecarbonyl)-4-ethyl-3-methylisoxazol-5(2H)-one] here?
**A.** 130 ± 25 nM

**Q.** Which results are given for `CCc1c(C)n(C(=O)c2cccc(C)c2)oc1=O` [Compound 2d, 4-Ethyl-3-methyl-2-(3-methylbenzoyl)isoxazol-5(2H)-one]?
**A.** IC50 [1]: 94 ± 23 nM; half-life (HNE [2]): 3.5 h; half-life [3]: 7.7 h; time during which HNE inhibition was maximal (HNE [4]): 30 min

**Q.** Which IC50 [1] does the source give for `CCc1c(C)c(=O)on1C(=O)C1CC1` [Compound 2e, 2-(Cyclopropanecarbonyl)-3-ethyl-4-methylisoxazol-5(2H)-one] here?
**A.** 2200 ± 280 nM

**Q.** With `CCc1c(C)c(=O)on1C(=O)c1cccc(C)c1` [Compound 2f, 3-Ethyl-4-methyl-2-(3-methylbenzoyl)isoxazol-5(2H)-one] as the compound, how does the IC50 [1] read?
**A.** 1800 ± 320 nM

**Q.** Which IC50 [1] does the source give for `CCOC(=O)c1c(C)c(=O)on1C(=O)C1CC1` [Compound 2g, Ethyl 2-(cyclopropanecarbonyl)-4-methyl-5-oxo-2,5-dihydroisoxazole-3-carboxylate] here?
**A.** 440 ± 140 nM

**Q.** With `CCOC(=O)c1c(C)c(=O)on1C(=O)c1cccc(C)c1` [Compound 2h, Ethyl 4-methyl-2-(3-methylbenzoyl)-5-oxo-2,5-dihydroisoxazole-3-carboxylate] as the compound, how does the IC50 [1] read?
**A.** 39700 ± 5100 nM

**Q.** With `CCc1cc(=O)on1C(=O)C1CC1` [Compound 2i, 2-(Cyclopropanecarbonyl)-3-ethylisoxazol-5(2H)-one] as the compound, how does the IC50 [1] read?
**A.** 96 ± 22 nM

**Q.** And the “hydrolysis with increasing HNE concentration (in words)” value (HNE [2]; 80 μM compound, 0.05 M phosphate buffer pH 7.5, 25 °C, 0, 50, 200, 400 μg/ml HNE, absorbance at 275 nm)?
**A.** dose-dependent hydrolysis

**Q.** And the half-life (HNE [2])?
**A.** 4 h

**Q.** What about the half-life [3] of the same compound?
**A.** 19.3 h

**Q.** And the “time during which HNE inhibition was maximal” value (HNE [4])?
**A.** 30 min

**Q.** What does the source list for `CCc1cc(=O)on1C(=O)c1cccc(C)c1` [Compound 2j, 3-Ethyl-2-(3-methylbenzoyl)isoxazol-5(2H)-one]?
**A.** fold higher inhibitory activity with respect to the corresponding 4-methyl derivative ([1]; 2i vs 2e, 2j vs 2f): 42 fold; IC50 [1]: 43 ± 11 nM; half-life (HNE [2]): 2.1 h; half-life [3]: 5.3 h; melting point: 81 to 84 °C; time during which HNE inhibition was maximal (HNE [4]): 30 min

**Q.** For `CCC(=O)n1oc(=O)cc1C(C)C` [Compound 2k, 3-Isopropyl-2-propionylisoxazol-5(2H)-one], which IC50 [1] is on record?
**A.** 1100 ± 140 nM

**Q.** And the melting point?
**A.** 92 to 95 °C

**Q.** For `CC(C)c1cc(=O)on1C(=O)C1CC1` [Compound 2l, 2-(Cyclopropanecarbonyl)-3-isopropylisoxazol-5(2H)-one], which IC50 [1] is on record?
**A.** 34 ± 9 nM

**Q.** What about the half-life (HNE [2]) of the same compound?
**A.** 4.3 h

**Q.** And the half-life [3]?
**A.** 19.3 h

**Q.** What about the “time during which HNE inhibition was maximal” value (HNE [4]) of the same compound?
**A.** 30 min

**Q.** With `CC(C)c1cc(=O)on1C(=O)C1CCCC1` [Compound 2m, 2-(Cyclopentanecarbonyl)-3-isopropylisoxazol-5(2H)-one] as the compound, how does the IC50 [1] read?
**A.** 560 ± 150 nM

**Q.** For `Cc1cccc(C(=O)n2oc(=O)cc2C(C)C)c1` [Compound 2n, 3-Isopropyl-2-(3-methylbenzoyl)isoxazol-5(2H)-one], which IC50 [1] is on record?
**A.** 42 ± 11 nM

**Q.** And the half-life (HNE [2])?
**A.** 2.6 h

**Q.** And the half-life [3]?
**A.** 6.2 h

**Q.** And the “time during which HNE inhibition was maximal” value (HNE [4])?
**A.** 30 min

**Q.** For `Cc1ccc(C(=O)n2oc(=O)cc2C(C)C)cc1` [Compound 2o, 3-Isopropyl-2-(4-methylbenzoyl)isoxazol-5(2H)-one], which “mechanism of HNE inhibition (in words)” value (HNE [5]) is on record?
**A.** competitive HNE inhibitor

**Q.** What about the IC50 [1] of the same compound?
**A.** 20 ± 7 nM

**Q.** And the half-life (HNE [2])?
**A.** 3.4 h

**Q.** What about the half-life [3] of the same compound?
**A.** 8.9 h

**Q.** And the melting point?
**A.** 77 to 79 °C

**Q.** And the “time after which HNE inhibition was reversed” value (HNE [4])?
**A.** 2 h

**Q.** Which IC50 [1] does the source give for `CC(C)c1cc(=O)on1C(=O)c1cccc(C#N)c1` [Compound 2p, 3-(3-Isopropyl-5-oxo-2,5-dihydroisoxazole-2-carbonyl)benzonitrile] here?
**A.** 6500 ± 1700 nM

**Q.** Which results are given for `CC(C)c1cc(=O)on1C(=O)c1ccc(C#N)cc1` [Compound 2q, 4-(3-Isopropyl-5-oxo-2,5-dihydroisoxazole-2-carbonyl)benzonitrile]?
**A.** IC50 [1]: 18200 ± 2500 nM; melting point: 113 to 115 °C

**Q.** Which IC50 [1] does the source give for `CC(C)c1cc(=O)on1C(=O)c1cccc(C(F)(F)F)c1` [Compound 2r, 3-Isopropyl-2-(3-(trifluoromethyl)benzoyl)isoxazol-5(2H)-one] here?
**A.** 1200 ± 220 nM

**Q.** Which IC50 [1] does the source give for `CC(C)c1cc(=O)on1C(=O)c1ccc(C(F)(F)F)cc1` [Compound 2s, 3-Isopropyl-2-(4-(trifluoromethyl)benzoyl)isoxazol-5(2H)-one] here?
**A.** 34 ± 12 nM

**Q.** What about the half-life (HNE [2]) of the same compound?
**A.** 0.9 h

**Q.** And the half-life [3]?
**A.** 3.1 h

**Q.** What about the “time after which HNE inhibition was reversed” value (HNE [4]) of the same compound?
**A.** 0.167 h

**Q.** Which IC50 [1] does the source give for `CC(C)c1cc(=S)on1C(=O)C1CC1` [Compound 3a, Cyclopropyl-(3-isopropyl-5-thioxoisoxazol-2(5H)-yl)methanone] here?
**A.** 2100 ± 310 nM

**Q.** With `Cc1cccc(C(=O)n2oc(=S)cc2C(C)C)c1` [Compound 3b, (3-Isopropyl-5-thioxoisoxazol-2(5H)-yl)-(m-tolyl)methanone] as the compound, how does the “HNE inhibitory activity (in words)” value [1] read?
**A.** inactivity

**Q.** With `Cc1cccc(Cn2oc(=O)c(C)c2C)c1` [Compound 4a, 3,4-Dimethyl-2-(3-methylbenzyl)isoxazol-5(2H)-one] as the compound, how does the melting point read?
**A.** 80 to 83 °C

From PMC5927774, “Isoxazol-5(2H)-one: a new scaffold for potent human neutrophil elastase (HNE) inhibitors” (Journal of Enzyme Inhibition and Medicinal Chemistry, 2017)
